Laboratory results reported in article PMC10349806 (Nature Communications, 2023).
Values joined by “and” are separate entries in the source; they are usually repeats but may differ in a detail not shown here. Equal entries are not always repeated.

Experiments:
[1] = target: T1, PfCRT variant CD3 (F3A, E29A, F52A, Y238A, F340A, E399A, E407A) (Plasmodium falciparum, UniProt Q9N623, A220S/E29A/E399A/E407A/F340A/F3A/F52A/I356T/K76T/M74I/N326S/N75E/Q271E/R371I/Y238A); assay: CQ uptake assay, oocytes expressing CD3; assay type: cell-based
T1 sequence (Q9N623 1-424 F3A/E29A/F52A/M74I/N75E/K76T/A220S/Y238A/Q271E/N326S/F340A/I356T/R371I/E399A/E407A): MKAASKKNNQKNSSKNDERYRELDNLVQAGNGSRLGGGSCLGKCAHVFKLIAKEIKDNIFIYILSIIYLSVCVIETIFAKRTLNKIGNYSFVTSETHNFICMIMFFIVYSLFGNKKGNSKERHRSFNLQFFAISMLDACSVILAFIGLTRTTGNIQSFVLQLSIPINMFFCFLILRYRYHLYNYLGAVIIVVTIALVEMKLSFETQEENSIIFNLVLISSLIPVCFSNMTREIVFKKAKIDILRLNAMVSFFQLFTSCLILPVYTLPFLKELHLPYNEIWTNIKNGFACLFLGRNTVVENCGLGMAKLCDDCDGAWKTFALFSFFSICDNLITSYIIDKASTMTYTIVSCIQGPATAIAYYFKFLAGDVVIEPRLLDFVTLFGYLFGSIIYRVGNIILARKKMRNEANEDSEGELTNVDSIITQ
Description: (§1) Site-directed mutagenesis of PfCRT^Dd2 was performed as described using the megaprimer method with overlap extension[21],[54]. The primer pairs used are listed in Supplementary Table 6. Please note that a codon-optimized and oocyte-adapted version of PfCRT^Dd2 was used[22] (Supplementary Fig. 16). The resulting DNA fragment was cloned into the SP64T expression vector and verified by sequencing.
(§2) Oocytes were obtained as described previously. Briefly, adult (>2 years old) female X. laevis frogs (NASCO) were anesthetized in a cooled solution of ethyl 3-amino benzoate methanesulfonate (0.1%, w/v), followed by a surgical removal of parts of the ovary. The ovary lobes were carefully dissected and small pieces of oocytes were incubated in Ca^2+-free ND96 buffer (96 mM NaCl, 2 mM KCl, 1 mM MgCl2 buffered with 5 mM HEPES/NaOH, pH 7.5) supplemented with collagenase D (0.1%, w/v; Roche), BSA (0.5%, w/v), and 9 mm Na2HPO4 at 18 °C for 14-16 h while gentle shaking. After incubation, the oocytes were carefully washed several times with ND96 buffer (96 mM NaCl, 2 mM KCl, 1.8 mM CaCl2, 1 mM MgCl2 buffered with 5 mM HEPES/NaOH, pH 7.5) supplemented with 100 mg l^−1 gentamycin). Defolliculated and healthy-looking stage V-VI oocytes were manually selected for RNA microinjection. The RNA was generated as following: The codon-optimized sequences of PfCRT variants were cloned into the pSP64T expression vector. After vector linearization using the restriction endonucleases BamHI or SalI (New England Biolabs), transcription was performed using the in vitro SP6 mMessage mMachine Kit (Ambion)[34]. The obtained RNA was kept at −80 °C and diluted with nuclease-free water to a concentration of 0.6 μg μl^−1. Precision-bore glass capillary tubes (3.5-inch glass capillaries; Drummond Scientific Co.) were pulled on a vertical puller (P-87 Flaming/Brown micropipette puller, Sutter Instrument Co.), graduated, and placed on a microinjector (Nanoject II Auto-Nanoliter Injector, Drummond Scientific Co.). 50 nl of nuclease-free water alone (control oocytes) or 50 nl of 0.6 μg μl^−1 RNA were injected under stereomicroscopic control. Injected oocytes were incubated for 46–72 h at 18 °C with twice-daily buffer changes before usage in experiments.
(§3) Drug uptake assays were performed as described previously[21],[22],[24],[34]. […] The direction of radio-labeled drug transport is here from the mostly acidic extracellular solution (pH 4.5 or 6.0, as indicated) into the oocyte cytosol (pH ∼ 7.2), which corresponds to the efflux of drug from the acidic digestive vacuole (pH 5.2) into the parasite cytoplasm (pH 7.2). The topology of PfCRT in the oolemma is such that both the N- and C-terminus face the extracellular milieu[3],[22]. In the parasite, the N- and C-terminus face the lumen of the digestive vacuole. CQ uptake kinetics were performed by incubating oocytes in ND96 buffer adjusted to a pH of 4.5, 5.0, 5.5, or 6.0 and supplemented with 50 nM [^3H]CQ and one of 7 different CQ concentrations (10 µM, 50 µM, 100 µM, 200 µM, 300 µM, 400 µM, 500 µM CQ). The reaction was stopped at the 60 min time point, which is in the linear uptake range[22],[34] (Supplementary Fig. 17). For determination of the amount of drug uptake for each oocyte, the reaction medium was removed and the oocytes were washed three times with 2 ml of ice-cold ND96 buffer. Each oocyte was individually transferred to a scintillation vial containing 5% sodium dodecyl sulfate (200 μl) for lysis. The radioactivity of each sample was measured using a liquid scintillation analyzer Tri-Carb 4910 TR (PerkinElmer). Oocytes that were injected with water instead of RNA were analyzed in parallel, representing the uptake of a drug by diffusion and/or endogenous permeation pathways. The resulting value represents the “background“ level of drug accumulation in oocytes (in-depth discussion in[22]). […]

PfCRT variant E207D = assay: CQ uptake assay, oocytes expressing E207D; assay type: cell-based, Plasmodium falciparum
Description: as §1, §2, §3

[2] = E207D, 50 µM CQ, 1 h, mean ± SEM

## CCN(CC)CCCC(C)Nc1ccnc2cc(Cl)ccc12 (stereo not drawn) [CQ, chloroquine]
[1]; CD3, 50 µM CQ, 1 h, mean ± SEM
  Activity at pH 4.5: 1.78 ± 0.46 pmol h-1 oocyte-1
  Activity at pH 6.0: 2.73 ± 0.57 pmol h-1 oocyte-1
[1]; CD3, CQ transport at pH 4.5 / pH 6.0
  R-value: 0.62 ± 0.06
[1]; pH 4.5, single replicates, Fig 1d left
  CD3 transport activity pH 4.5: 0.66 pmol oocyte-1 h-1 and 2.21 pmol oocyte-1 h-1 and 2.46 pmol oocyte-1 h-1
[1]; pH 4.5 vs pH 6.0, Fig 1d left
  CD3 R-value: 0.47 and 0.72 and 0.65
[1]; pH 6.0, single replicates, Fig 1d left
  CD3 transport activity pH 6.0: 1.39 pmol oocyte-1 h-1 and 3.05 pmol oocyte-1 h-1 and 3.76 pmol oocyte-1 h-1
PfCRT variant E207D; [2]
  Activity at pH 4.5: 1.82 ± 0.06 pmol h-1 oocyte-1
  Activity at pH 6.0: 5.13 ± 0.37 pmol h-1 oocyte-1
PfCRT variant E207D; E207D, CQ transport at pH 4.5 / pH 6.0
  R-value: 0.36 ± 0.05
PfCRT variant E207D; pH 4.5, individual replicates, Fig 6b
  E207D transport activity pH 4.5: 1.93 pmol oocyte-1 h-1 and 1.78 pmol oocyte-1 h-1 and 1.98 pmol oocyte-1 h-1 and 1.89 pmol oocyte-1 h-1 and 1.82 pmol oocyte-1 h-1 and 1.51 pmol oocyte-1 h-1
PfCRT variant E207D; pH 6.0, individual replicates, Fig 6b
  E207D transport activity pH 6.0: 4.59 pmol oocyte-1 h-1 and 4.25 pmol oocyte-1 h-1 and 6.63 pmol oocyte-1 h-1 and 6.08 pmol oocyte-1 h-1 and 4.42 pmol oocyte-1 h-1 and 4.78 pmol oocyte-1 h-1
PfCRT variant E207D; ratio of activity pH 4.5 / pH 6.0
  E207D R-value: 0.42 and 0.30 and 0.31 and 0.41 and 0.32
